The values below come from patent US11931459B2, “Treatment of pain in pediatric patients by administration of sustained-release liposomal anesthetic compositions” (Pacira Pharmaceuticals, Inc., priority 2021, dated 2024).

Data set [1] in a line: Safety: treatment-emergent adverse events up to 30 days after surgery (PLAY trial). The class given is in vivo. The settings on record: age group 1 (12 to <17 years), spine surgery; liposomal bupivacaine 4 mg/kg or bupivacaine HCl 2 mg/kg. On the procedure:
• Methods: A multicenter, open-label, phase 3, randomized trial (PLAY; NCT03682302) was conducted, with primary and secondary objectives evaluating the pharmacokinetics and safety, respectively, of multivesicular liposomal bupivacaine (EXPAREL®) in pediatric patients (age group 1: 12 to <17 years; age group 2: 6 to <12 years). The hypothesis was that the pharmacokinetics and safety profiles would support the safety of EXPAREL® (also referred to herein as “multivesicular liposomal bupivacaine” or “liposomal bupivacaine”) in pediatric patients. Age group 1 received 4 mg/kg liposomal bupivacaine or 2 mg/kg bupivacaine hydrochloride (HCl) at the end of spine surgery; all patients in age group 2 received liposomal bupivacaine (4 mg/kg) at the end of spine or cardiac surgery. […]
The sample size was determined on the basis of the number of patients needed to characterize the PK profile of liposomal bupivacaine in pediatric patients per FDA requirements. […] Descriptive statistics (number, mean, standard deviation [SD], median, minimum, maximum) were calculated for continuous data; tabulations (number and percentage) were calculated for categorial data. PK analysis included pediatric patients who underwent surgery, received treatment, and provided at least 1 blood sample for quantifiable plasma concentration measurement. PK measures were assessed by noncompartmental analysis. […]

Data set [2] in a line: Bupivacaine PK, nonlinear mixed-effect modeling (population PK method). The class given is in vivo, human. On the procedure: The sample size was determined on the basis of the number of patients needed to characterize the PK profile of liposomal bupivacaine in pediatric patients per FDA requirements. Authorized staff or a designee obtained the randomization assignment once eligible patients were at the clinic site for surgery. Descriptive statistics (number, mean, standard deviation [SD], median, minimum, maximum) were calculated for continuous data; tabulations (number and percentage) were calculated for categorial data. PK analysis included pediatric patients who underwent surgery, received treatment, and provided at least 1 blood sample for quantifiable plasma concentration measurement. PK measures were assessed by noncompartmental analysis. A separate PK analysis was conducted using nonlinear mixed-effect modeling (population PK method) with the spine surgery cohorts combined. The safety analysis included pediatric patients who underwent surgery and received treatment. The incidence of patients reporting TEAEs was tabulated by the number and percentage of patients reporting the TEAE. All analyses and tabulations were performed using SAS, version 9.4; PK descriptive statistics were performed using Sigmastat and Microsoft Excel.
Across age groups, trends in PK parameters between liposomal bupivacaine and bupivacaine HCl using the population PK model were consistent with those observed with noncompartmental analysis (Table 4). The PK of bupivacaine in both age groups and surgery cohorts were adequately described by a linear 2-compartment PK model with fast and slow absorption routes for liposomal bupivacaine. For each treatment (liposomal bupivacaine or bupivacaine HCl), the Cmax in 12-year-old patients was predicted to be similar to that in 17-year-old patients in pediatric patients undergoing spine surgery.

A short description of data set [3]: Bupivacaine PK after local infiltration, noncompartmental analysis (PLAY phase 3 trial, NCT03682302). Also on record: species or system human. The settings on record: in vivo; for AUC(0-inf): AUC0-∞. How it is done: • Methods: A multicenter, open-label, phase 3, randomized trial (PLAY; NCT03682302) was conducted, with primary and secondary objectives evaluating the pharmacokinetics and safety, respectively, of multivesicular liposomal bupivacaine (EXPAREL®) in pediatric patients (age group 1: 12 to <17 years; age group 2: 6 to <12 years). The hypothesis was that the pharmacokinetics and safety profiles would support the safety of EXPAREL® (also referred to herein as “multivesicular liposomal bupivacaine” or “liposomal bupivacaine”) in pediatric patients. Age group 1 received 4 mg/kg liposomal bupivacaine or 2 mg/kg bupivacaine hydrochloride (HCl) at the end of spine surgery; all patients in age group 2 received liposomal bupivacaine (4 mg/kg) at the end of spine or cardiac surgery. […] In age group 2, 100% and 31% of patients undergoing spine (n=5) and cardiac (n=9) surgery experienced TEAEs, respectively. TEAEs were generally mild or moderate, with no discontinuations due to TEAEs or deaths. […] TEAEs were mild to moderate, supporting the safety of liposomal bupivacaine in pediatric patients undergoing spine or cardiac surgery. Study Design
This study was performed in 2 parts. Part 1 evaluated PK and safety of liposomal bupivacaine. Part 2 followed part 1 and further evaluated the safety of liposomal bupivacaine. For both parts of the study, pediatric patients aged 12 to <17 years (age group 1) were analyzed separately from patients aged 6 to <12 years (age group 2), per FDA guidance for safety studies in pediatric patients.^25
In age group 1, eligible pediatric patients aged 12 to <17 years undergoing spine surgery were randomized 1:1 to receive a single dose of either liposomal bupivacaine (4 mg/kg up to 266 mg) diluted with normal saline, or bupivacaine HCl (2 mg/kg up to 175 mg) via local infiltration at the end of surgery. Randomization was performed with a centralized randomization system using a unique subject identifier and unique random code identifier. In age group 2, all eligible pediatric patients aged 6 to <12 years of age undergoing either spine or cardiac surgery received liposomal bupivacaine (4 mg/kg up to 266 mg) via local infiltration at the end of surgery. Dosing for both age groups was weight based. Guidelines and training were shared with the participating surgeons to ensure reliability in infiltration techniques.
Across age groups and surgical procedures, surgeons administered liposomal bupivacaine or bupivacaine HCl via local infiltration prior to wound closure, with liposomal bupivacaine and bupivacaine HCl administered in small increments into the deep and superficial layers along the entire length of the incision site to ensure uniform drug distribution. Use of intraoperative opioids, acetaminophen, or other nonsteroidal anti-inflammatory drugs as well as postsurgical pain medication in cases of insufficient analgesia during and after surgery was permitted in accordance with the standard of care at each site. Use of local anesthetics within 96 hours after administration of liposomal bupivacaine was prohibited.
The primary objective was to analyze PK of liposomal bupivacaine, including area under the plasma concentration-time curve (AUC), maximum plasma concentration (Cmax), time to Cmax (Tmax), apparent elimination half-life (t1/2), apparent clearance (CL/F), and apparent volume of distribution (Vd/F). To assess plasma concentration of bupivacaine, 8 blood samples were collected up to 42-60 hours after spine surgery and up to 64-72 hours after cardiac surgery in each patient. For both procedures, the first 4 samples were collected ˜15, ˜30, ˜45, and 60-75 minutes after liposomal bupivacaine administration. The last 4 samples were collected in time windows rather than precise time points. For spine surgery, sample windows were 2-3,10-18, 24-36, and 42-60 hours after receiving liposomal bupivacaine or bupivacaine HCl. […]

The structures appear in SMILES notation. Counter-ions that a name gives are not always drawn.

By Tmax is commonly meant the time from dosing to the highest level. For the compound `CCCCN1CCCCC1C(=O)Nc1c(C)cccc1C` (stereo not drawn) [bupivacaine HCl, bupivacaine hydrochloride], the “discontinuations due to TEAEs or on-study deaths” value in data set [1] is recorded as “no discontinuations due to TEAEs or on-study deaths”. Also, the AUC(0-inf) in data set [2] (human, plasma, population PK method, spine surgery: liposomal bupivacaine 4 mg/kg (6 to <17 y, n = 18) or bupivacaine HCl 2 mg/kg (12 to <17 y, n = 15), read-out: AUC0-∞, geometric mean) amounted to 6400 ng·h/mL; in data set [3] (human, 2 mg/kg, Geometric mean) it was 5060 ng·h/mL; in data set [3] (human, 2 mg/kg, Mean) it was 5710 ng·h/mL. Besides, the Cmax in data set [2] (human, plasma, population PK method, spine surgery: liposomal bupivacaine 4 mg/kg (6 to <17 y, n = 18) or bupivacaine HCl 2 mg/kg (12 to <17 y, n = 15), read-out: Early Cmax, geometric mean) amounted to 444 ng/mL; in data set [3] (human, age group 1 (12 to <17 years), spine surgery, local infiltration, liposomal bupivacaine 4 mg/kg (n = 15) or bupivacaine HCl 2 mg/kg (n = 15), read-out: Cmax, Geometric mean), 488 ng/mL. Moreover, the Vd/F in data set [2] (human, plasma, population PK method, spine surgery: liposomal bupivacaine 4 mg/kg (6 to <17 y, n = 18) or bupivacaine HCl 2 mg/kg (12 to <17 y, n = 15), read-out: Vss/F, geometric mean) is 153 L; in data set [3] (human, 2 mg/kg, Geometric mean), 201 L; in data set [3] (human, 2 mg/kg, Mean) it was 227 L. For the same compound, the half-life in data set [2] (human, plasma, population PK method, spine surgery: liposomal bupivacaine 4 mg/kg (6 to <17 y, n = 18) or bupivacaine HCl 2 mg/kg (12 to <17 y, n = 15), read-out: t1/2, geometric mean (converted)) is 6.5 h; in data set [3] (human, 2 mg/kg, t1/2, Geometric mean), 7.4 h; in data set [3] (human, 2 mg/kg, t1/2, Mean), 8.4 h. In addition, the “CL/F, geometric mean” value was 16.8 L/h in data set [2] (population PK method, spine surgery: liposomal bupivacaine 4 mg/kg (6 to <17 y, n = 18) or bupivacaine HCl 2 mg/kg (12 to <17 y, n = 15)) and 18.9 L/h in data set [3]. In data set [2] (population PK model, spine surgery), the “Median predicted early Tmax” value was 0.667 h. For the same compound, the Tmax was roughly 1 h in data set [3] (human) and 0.9 h in data set [3] (human, 2 mg/kg). Also, the “CL/F, Mean” value in data set [3] worked out at 20.5 L/h.
